Test results reported in patent US8940314B2, “Repellent to insects harmful to a plant and method for repelling the same” (Riken, priority 2004, dated 2015).

Columns and labels:
Assay type in all cases: in vivo
green peach aphid = assay: Repelling effect on green peach aphid, treated eggplant seed leaves; conditions: ingredient 80 parts + auxiliary B 20 parts, 200 mg/100 ml water, 7 days at 22 to 30° C., number of adult insects vs distilled water area
Description: (§1) (polyoxyethylene phenyl ether+dodecylbenzenesulufonate): soybean oil (1:1:1)) (20 parts by mass) listed in Table 4 were mixed to prepare a sample of the repellent of the present invention. The repellent was diluted with water to 200 mg/100 ml which was then applied to seed leaves of eggplant (variety: Senryo No. 2). As control samples, auxiliary B alone and distilled water were used. After drying, the plant was maintained at 22 to 30° C. for 7 days in an isolated room in which green peach aphid were grown and the number of adult insects that came flying was counted with time. A repelling ratio was determined according to the following formula.

cotton aphid = assay: Repelling effect on cotton aphid, treated cucumber true leaves; conditions: ingredient 80 parts + auxiliary A 20 parts, 200 mg/100 ml water, 7 days at 22 to 30° C., number of adult insects vs distilled water area
Description: Main ingredients (80 parts by mass) and auxiliary A (polyoxyethylene (5) monododecyl ether) (20 parts by mass) listed in Table 3 were mixed to prepare a sample of the repellent of the present invention.
(§2) The repellent was diluted with water to 200 mg/100 ml which was then applied to true leaves of cucumber (variety: Sagami Hanjiro at 0.7 leaf stage). As control samples, auxiliary A alone and distilled water were used. After drying, the plant was maintained at 22 to 30° C. for 7 days in an isolated room in which cotton aphid were grown and the number of adult insects that came flying was counted with time. A repelling ratio was determined according to the following formula. Repelling ratio (%)=100×[1−(the number of adult insects in the repellent applied area)/(the number of adult insects in the distilled water applied area)]

silverleaf whitefly = assay: Repelling effect on silverleaf whitefly, treated cucumber seed leaves; conditions: ingredient 80 parts + auxiliary B 20 parts, 200 mg/100 ml water, 3 days at 22 to 30° C., number of adult insects vs distilled water area
Description: as §1, with “(1:1:1)” for “(1:1:1))”, “2” for “4”, “cucumber” for “eggplant”, “Sagami Hanjiro).” for “Senryo No. 2).”, “3” for “7”, “adult silverleaf whiteflies” for “green peach aphid”

greenhouse whitefly = assay: Repelling effect on greenhouse whitefly, treated common bean seed leaves; conditions: ingredient 80 parts + auxiliary A 20 parts, 200 mg/100 ml water, 3 days at 22 to 30° C., number of adult insects vs distilled water area
Description: Main ingredients (80 parts by mass) and auxiliary A (polyoxyethylene (5) monododecyl ether) (20 parts by mass) listed in Table 1 were mixed to prepare a sample of the repellent of the present invention.
as §2, with “seed” for “true”, “common bean” for “cucumber”, “Taisho Kintoki).” for “Sagami Hanjiro at 0.7 leaf stage).”, “3” for “7”, “adult greenhouse whiteflies” for “cotton aphid”

western flower thrips = assay: Repelling effect on western flower thrips, insect damage on treated eggplant true leaves; conditions: ingredient 80 parts + auxiliary A 20 parts, 200 mg/100 ml water, 10 days at 22 to 30° C., total degree of insect damage vs distilled water area
Description: Main ingredients (80 parts by mass) and auxiliary A (polyoxyethylene (5) monododecyl ether) (20 parts by mass) listed in Table 5 were mixed to prepare a sample of the repellent of the present invention. The repellent was diluted with water to 200 mg/100 ml which was then applied to true leaves of eggplant (variety: Senryo No. 2 at 3.5 leaf stage). As control samples, auxiliary A alone and distilled water were used. After drying, the plant was maintained at 22 to 30° C. for 10 days in an isolated room in which adult western flower thrips were grown and the degree of insect damage (the number of insect damage spots) was observed and were totaled based on the criteria: 0 for no damage, 1 for very slight damage, 3 for slight damage, 5 for remarkable damage and 10 for serious damage. A repelling ratio was determined according to the following formula.

Thrips palmi Karny = assay: Repelling effect on Thrips palmi Karny, insect damage on treated eggplant true leaves; conditions: ingredient 80 parts + auxiliary B 20 parts, 200 mg/100 ml water, 10 days at 22 to 30° C., total degree of insect damage vs distilled water area
Description: The same procedures in Example 5 were repeated to prepare the repellent except that auxiliary B (diglycerin monooleate : (polyoxyethylene phenyl ether+dodecylbenzenesulufonate): soybean oil (1:1:1)) was used in place of auxiliary A.
The repellent was diluted with water to 200 mg/100 ml which was then applied to true leaves of eggplant (variety: Senryo No. 2 at 3.5 leaf stage). As control samples, auxiliary B alone and distilled water were used. After drying, the plant was maintained at 22 to 30° C. for 10 days in an isolated room in which adult Thrips palmi Karny were grown and the degree of insect damage (the number of insect damage spots) was observed and were totaled based on the criteria: 0 for no damage, 1 for very slight damage, 3 for slight damage, 5 for remarkable damage and 10 for serious damage. A repelling ratio was determined according to the following formula. Repelling ratio (%)=100×[1−(the total degree of insect damage in the repellent applied area)/(the total degree of insect damage in the distilled water applied area)]

CCCCCCCCCC(=O)O [1-18, n-capric acid]
Repelling ratio (%) (green peach aphid): 68% | Repelling ratio (%) (cotton aphid): 76% | Repelling ratio (%) (silverleaf whitefly): 86% | Repelling ratio (%) (greenhouse whitefly): 90%

CCCCCCCC/C=C\CCCCCCCC(=O)O [1-19, oleic acid]
Repelling ratio (%) (green peach aphid): 70% | Repelling ratio (%) (cotton aphid): 70% | Repelling ratio (%) (western flower thrips): 76% | Repelling ratio (%) (Thrips palmi Karny): 69% | Repelling ratio (%) (silverleaf whitefly): 68% | Repelling ratio (%) (greenhouse whitefly): 84%

CC(C)CCCCCCCCCCCCCCC(=O)O [1-20, isostearic acid]
Repelling ratio (%) (silverleaf whitefly): 65% | Repelling ratio (%) (greenhouse whitefly): 72%

OC[C@@H](O)[C@H]1OC[C@H](O)[C@H]1O [1-21, sorbitan]
Repelling ratio (%) (green peach aphid): 62% | Repelling ratio (%) (cotton aphid): 68% | Repelling ratio (%) (silverleaf whitefly): 67% | Repelling ratio (%) (greenhouse whitefly): 74%

CCCCCCCCCCCC(=O)OCC(COC(=O)CCCCCCCCCCC)OC(=O)CCCCCCCCCCC [5-22, glycerin trilaurate]
Repelling ratio (%) (western flower thrips): 82% | Repelling ratio (%) (Thrips palmi Karny): 90%

OC[C@@H](O)[C@@H](O)[C@H](O)[C@@H](O)CO [5-23, sorbitol]
Repelling ratio (%) (western flower thrips): 61% | Repelling ratio (%) (Thrips palmi Karny): 55%

citric acid unsaturated fatty acid monoglyceride [1-7]
Repelling ratio (%) (green peach aphid): 81% | Repelling ratio (%) (cotton aphid): 92% | Repelling ratio (%) (silverleaf whitefly): 71% | Repelling ratio (%) (greenhouse whitefly): 73%

decaglycerin laurate [1-9]
Repelling ratio (%) (green peach aphid): 83% | Repelling ratio (%) (cotton aphid): 90% | Repelling ratio (%) (silverleaf whitefly): 70% | Repelling ratio (%) (greenhouse whitefly): 80%

decaglycerin oleate [1-8]
Repelling ratio (%) (green peach aphid): 78% | Repelling ratio (%) (cotton aphid): 95% | Repelling ratio (%) (silverleaf whitefly): 75% | Repelling ratio (%) (greenhouse whitefly): 76%

decaglycerin stearate [5-7]
Repelling ratio (%) (western flower thrips): 77% | Repelling ratio (%) (Thrips palmi Karny): 70%

diglycerin monostearate [5-5]
Repelling ratio (%) (western flower thrips): 60% | Repelling ratio (%) (Thrips palmi Karny): 55%

glycerin diacetomonolaurate [1-6]
Repelling ratio (%) (green peach aphid): 77% | Repelling ratio (%) (cotton aphid): 82% | Repelling ratio (%) (silverleaf whitefly): 94% | Repelling ratio (%) (greenhouse whitefly): 96%

glycerin monoacetomonostearate [5-8]
Repelling ratio (%) (western flower thrips): 68% | Repelling ratio (%) (Thrips palmi Karny): 55%

glycerin monocaprylate [1-1]
Repelling ratio (%) (green peach aphid): 76% | Repelling ratio (%) (cotton aphid): 88% | Repelling ratio (%) (silverleaf whitefly): 73% | Repelling ratio (%) (greenhouse whitefly): 82%

glycerin monolaurate [5-1]
Repelling ratio (%) (western flower thrips): 62% | Repelling ratio (%) (Thrips palmi Karny): 65%

glycerin monooleate [1-2]
Repelling ratio (%) (green peach aphid): 81% | Repelling ratio (%) (cotton aphid): 85% | Repelling ratio (%) (silverleaf whitefly): 70% | Repelling ratio (%) (greenhouse whitefly): 82%

glycerin monopalmitate [5-3]
Repelling ratio (%) (western flower thrips): 68% | Repelling ratio (%) (Thrips palmi Karny): 71%

glycerin monostearate [5-2]
Repelling ratio (%) (western flower thrips): 58% | Repelling ratio (%) (Thrips palmi Karny): 62%

poly (2-3) glycerin oleate [5-6]
Repelling ratio (%) (western flower thrips): 58% | Repelling ratio (%) (Thrips palmi Karny): 68%

polyoxyethylene (5) monododecyl ether [1-23, reference compound]
Repelling ratio (%) (cotton aphid): 3% | Repelling ratio (%) (western flower thrips): 8% | Repelling ratio (%) (greenhouse whitefly): 5%

polyoxyethylene (20) sorbitan [5-13]
Repelling ratio (%) (western flower thrips): 68% | Repelling ratio (%) (Thrips palmi Karny): 54%

polyoxyethylene (40) sorbitan [1-15]
Repelling ratio (%) (green peach aphid): 82% | Repelling ratio (%) (cotton aphid): 75% | Repelling ratio (%) (western flower thrips): 75% | Repelling ratio (%) (Thrips palmi Karny): 69% | Repelling ratio (%) (silverleaf whitefly): 85% | Repelling ratio (%) (greenhouse whitefly): 70%

polyoxyethylene (60) sorbitan [1-16]
Repelling ratio (%) (green peach aphid): 80% | Repelling ratio (%) (cotton aphid): 78% | Repelling ratio (%) (silverleaf whitefly): 77% | Repelling ratio (%) (greenhouse whitefly): 73%

propylene glycol monooleate [1-10]
Repelling ratio (%) (green peach aphid): 76% | Repelling ratio (%) (cotton aphid): 82% | Repelling ratio (%) (western flower thrips): 80% | Repelling ratio (%) (Thrips palmi Karny): 81% | Repelling ratio (%) (silverleaf whitefly): 73% | Repelling ratio (%) (greenhouse whitefly): 82%

sorbitan laurate [1-4]
Repelling ratio (%) (green peach aphid): 82% | Repelling ratio (%) (cotton aphid): 96% | Repelling ratio (%) (western flower thrips): 53% | Repelling ratio (%) (Thrips palmi Karny): 63% | Repelling ratio (%) (silverleaf whitefly): 92% | Repelling ratio (%) (greenhouse whitefly): 92%

sorbitan oleate [1-5]
Repelling ratio (%) (green peach aphid): 85% | Repelling ratio (%) (cotton aphid): 93% | Repelling ratio (%) (silverleaf whitefly): 75% | Repelling ratio (%) (greenhouse whitefly): 80%

sorbitan palmitate [5-11]
Repelling ratio (%) (western flower thrips): 72% | Repelling ratio (%) (Thrips palmi Karny): 73%

succinic acid saturated acid monoglyceride [5-9]
Repelling ratio (%) (western flower thrips): 70% | Repelling ratio (%) (Thrips palmi Karny): 71%

sucrose fatty acid ester (laurate) [5-25]
Repelling ratio (%) (western flower thrips): 55% | Repelling ratio (%) (Thrips palmi Karny): 68%

sucrose fatty acid ester (oleate) [5-24]
Repelling ratio (%) (western flower thrips): 58% | Repelling ratio (%) (Thrips palmi Karny): 62%
